“And” between values parts separate entries of the source, which are not always exact repeats. Identical values can stand only once. After the bases stand the sugars from the 5' end (letter, count) and the backbone: PS all phosphorothioate, else s phosphorothioate and o phosphodiester by linkage. Methylation of C is not given here. e = 2'-O-(2-methoxyethyl) (MOE); l = locked nucleic acid (LNA); d = 2'-deoxy (DNA)
How the values were obtained:
SNHG14 = conditions: ASO
DGAT2 = conditions: ASO
[1] = Mouse Primary Neuronal Cell, 0.005 µM

TTATTTCCATTTATTTTCA (sugars llddlddddddddldldll, PS)
target mRNA inhibition (SNHG14; Human Neuronal Cell, 7.5 µM): 66%

GCACATTCTTTCTATACC (sugars l1 d15 l2, PS)
target mRNA inhibition (SNHG14; Human Neuronal Cell, 7.5 µM): 25%

AATTATTTATACACCATCAT (sugars lllddllddddddldlldll, PS)
target mRNA inhibition (SNHG14; Human Neuronal Cell, 7.5 µM): 56%

TTCTGTATACACCATCC (sugars lddlddddddddlddll, PS)
target mRNA inhibition (SNHG14; Human Neuronal Cell, 7.5 µM): 60%

TTATACCTTTCTTTAACCCT (sugars ldldddldddddddddddll, PS)
target mRNA inhibition (SNHG14; Human Neuronal Cell, 7.5 µM): 64%

AAATTATTTATACACCATCA (sugars ldlllddddddddlddllll, PS)
target mRNA inhibition (SNHG14; Human Neuronal Cell, 7.5 µM): 68%

TTCTGTATACACCATCC (sugars l3 d12 l2, PS)
target mRNA inhibition (SNHG14; Human Neuronal Cell, 7.5 µM): 58%

CTTTCCATTTATTTCCATT (sugars l1 d3 l1 d11 l3, PS)
target mRNA inhibition (SNHG14; Human Neuronal Cell, 7.5 µM): 58%

CCAACATAGATCCTCT (sugars l2 d10 l4, PS)
target mRNA inhibition (SNHG14; Human Neuronal Cell, 0.2 µM): 55% | target mRNA inhibition (SNHG14; Human Neuronal Cell, 1 µM): 67%

TTCTGTATACACCATCCC (sugars l1 d15 l2, PS)
target mRNA inhibition (SNHG14; Human Neuronal Cell, 7.5 µM): 58%

GATCATTCTCAACAATTA (sugars l2 d1 l2 d8 l5, PS)
target mRNA inhibition (SNHG14; Human Neuronal Cell, 7.5 µM): 26%

CCTACATCTCATACTT (sugars l3 d10 l3, PS)
target mRNA inhibition (SNHG14; Human Neuronal Cell, 0.2 µM): -11% | target mRNA inhibition (SNHG14; Human Neuronal Cell, 1 µM): 3% | target mRNA inhibition (SNHG14; Human Neuronal Cell, 5 µM): 13% | target mRNA inhibition (SNHG14; [1]): 93.4%

TTCAGCTTTTAACCAGAGT (sugars l2 d14 l3, PS)
target mRNA inhibition (SNHG14; Human Neuronal Cell, 7.5 µM): 73%

CTGTTTATACCCTTTCCA (sugars l1 d12 l1 d2 l2, PS)
target mRNA inhibition (SNHG14; Human Neuronal Cell, 7.5 µM): 58%

GCAACATTATTAACCACCT (sugars lddldldddddddddddll, PS)
target mRNA inhibition (SNHG14; Human Neuronal Cell, 7.5 µM): 60%

CGAATCTTGACATACAGG (sugars l3 d12 l3, PS)
target mRNA inhibition (SNHG14; Human Neuronal Cell, 0.2 µM): 8% | target mRNA inhibition (SNHG14; Human Neuronal Cell, 1 µM): 19% | target mRNA inhibition (SNHG14; Human Neuronal Cell, 5 µM): 14%

CCATGCTACATAAACC (sugars l4 d10 l2, PS)
target mRNA inhibition (SNHG14; Human Neuronal Cell, 0.2 µM): 36% | target mRNA inhibition (SNHG14; Human Neuronal Cell, 1 µM): 50%

CTCTACAACAGTCCCA (sugars l3 d11 l2, PS)
target mRNA inhibition (SNHG14; Human Neuronal Cell, 0.2 µM): 53% | target mRNA inhibition (SNHG14; Human Neuronal Cell, 1 µM): 51%

TTACTCTGCAATACAC (sugars l3 d10 l3, PS)
target mRNA inhibition (SNHG14; Human Neuronal Cell, 0.2 µM): 46% | target mRNA inhibition (SNHG14; Human Neuronal Cell, 1 µM): 61%

TTTCTTACTATCTTCA (sugars l4 d10 l2, PS)
target mRNA inhibition (SNHG14; Human Neuronal Cell, 0.2 µM): 53% | target mRNA inhibition (SNHG14; Human Neuronal Cell, 1 µM): 61%

TCCAACATAGATCCTC (sugars l2 d10 l4, PS)
target mRNA inhibition (SNHG14; Human Neuronal Cell, 0.2 µM): 52% | target mRNA inhibition (SNHG14; Human Neuronal Cell, 1 µM): 65%

AATTTTTTTCTTACTATCTT (sugars ldllddddddddddllddll, PS)
target mRNA inhibition (SNHG14; Human Neuronal Cell, 7.5 µM): 44%

CAAATACAGATTATCC (sugars l2 d10 l4, PS)
target mRNA inhibition (SNHG14; Human Neuronal Cell, 0.2 µM): 49% | target mRNA inhibition (SNHG14; Human Neuronal Cell, 1 µM): 59%

TACATTGACACCTAAT (sugars l4 d10 l2, PS)
target mRNA inhibition (SNHG14; Human Neuronal Cell, 0.2 µM): 19% | target mRNA inhibition (SNHG14; Human Neuronal Cell, 1 µM): 17%

ATTTTTTTCTTACTATCTTC (sugars ldlllddddddddlddddll, PS)
target mRNA inhibition (SNHG14; Human Neuronal Cell, 7.5 µM): 56%

CCTTCCCTTTGATAACA (sugars l2 d12 l3, PS)
target mRNA inhibition (SNHG14; Human Neuronal Cell, 0.2 µM): 43% | target mRNA inhibition (SNHG14; Human Neuronal Cell, 1 µM): 62%

TTATAGCCATTCTATCT (sugars l2 d1 l1 d11 l2, PS)
target mRNA inhibition (SNHG14; Human Neuronal Cell, 7.5 µM): 62%

ACCAATTATACTTACAA (sugars l3 d11 l3, PS)
target mRNA inhibition (SNHG14; Human Neuronal Cell, 0.2 µM): 21% | target mRNA inhibition (SNHG14; Human Neuronal Cell, 1 µM): 52%

GTTCTACTATACTTTCCT (sugars l1 d2 l1 d12 l2, PS)
target mRNA inhibition (SNHG14; Human Neuronal Cell, 7.5 µM): 53%

TTCTTGTTTATCCCAA (sugars l2 d10 l4, PS)
target mRNA inhibition (SNHG14; Human Neuronal Cell, 0.2 µM): 67% | target mRNA inhibition (SNHG14; Human Neuronal Cell, 1 µM): 71%

TCTTTCCATTTATTTCCA (sugars l4 d12 l2, PS)
target mRNA inhibition (SNHG14; Human Neuronal Cell, 0.2 µM): 53% | target mRNA inhibition (SNHG14; Human Neuronal Cell, 1 µM): 60%

TCCATTTATTTCCATTTAT (sugars llddlddddddddldldll, PS)
target mRNA inhibition (SNHG14; Human Neuronal Cell, 7.5 µM): 40%

CATCTGCTACATATTC (sugars l4 d10 l2, PS)
target mRNA inhibition (SNHG14; Human Neuronal Cell, 0.2 µM): 49% | target mRNA inhibition (SNHG14; Human Neuronal Cell, 1 µM): 58%

ACATGTCCCTTTATATT (sugars l4 d11 l2, PS)
target mRNA inhibition (SNHG14; Human Neuronal Cell, 0.2 µM): -15% | target mRNA inhibition (SNHG14; Human Neuronal Cell, 1 µM): -4% | target mRNA inhibition (SNHG14; Human Neuronal Cell, 5 µM): 9% | target mRNA inhibition (SNHG14; [1]): 83.7%

GTTTCCATCTACTATTAAT (sugars l1 d2 l2 d12 l2, PS)
target mRNA inhibition (SNHG14; Human Neuronal Cell, 7.5 µM): 62%

TTGCCAGGCATGGAGCTCAG (sugars e5 d10 e5, PS)
target mRNA inhibition (DGAT2; HepG2, 0.12 µM): 37%

CCGGACTGAATGTCACC (sugars e3 d10 e4, PS)
target mRNA inhibition (DGAT2; HepG2, 2.5 µM): 79% and 82%

GACCCACTGGAGCACTGAGA (sugars e5 d10 e5, PS)
target mRNA inhibition (DGAT2; HepG2, 0.12 µM): 69%

ACTTTTTCCTTCTTAAAAAA (sugars e5 d10 e5, PS)
target mRNA inhibition (DGAT2; HepG2, 0.12 µM): 0%

GTGGTCTGGGAACAGCAGCA (sugars e5 d10 e5, PS)
target mRNA inhibition (DGAT2; HepG2, 2.5 µM): 72% and 61% | target mRNA inhibition (DGAT2; HepG2, 10 µM): 66% and 72%

TCCGGACTGAATGTCACCTC (sugars e5 d10 e5, PS)
target mRNA inhibition (DGAT2; HepG2, 2.5 µM): 75% | target mRNA inhibition (DGAT2; HepG2, 10 µM): 85% and 90%

GCTACTGGCATTGCTCCTCC (sugars e5 d10 e5, PS)
target mRNA inhibition (DGAT2; HepG2, 2.5 µM): 42% | target mRNA inhibition (DGAT2; HepG2, 10 µM): 81%

ATAGTTCCTGGTGGTCAGCA (sugars e5 d10 e5, PS)
target mRNA inhibition (DGAT2; HepG2, 0.12 µM): 46%

AGTAAGCCTCGGTGTCCTCT (sugars e5 d10 e5, PS)
target mRNA inhibition (DGAT2; HepG2, 2.5 µM): 61% and 76% and 75% | target mRNA inhibition (DGAT2; HepG2, 10 µM): 92% and 91% and 95%

From the OligoGym collection
